Consider 13 compounds from ChEMBL document CHEMBL1201862, “PubChem BioAssay data set” (2004).

Each structure is given as a SMILES string.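 Five concentrations, 48 hours, 96-well plates. GI50: concentration for 50% inhibition of growth.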 Calls of active or inactive are those of the source. Cut-off read from the data, not from the text of the source: active = GI50 up to about 1.1 µM and inactive = higher.

The term GI50 denotes the concentration giving 50% growth inhibition.

Assay in all cases: DTP human tumour cell line panel, 48 h
Assay [1] has as its system CCRF-CEM.
Assay [2] concerns COLO 205.
Assay [3] has as its system HCC 2998.
Assay [4] relates to HCT-116.
The test system of assay [5] is HL-60.
Assay [6] relates to HOP-62.
Assay [7] concerns HT-29.
Assay [8] concerns IGROV-1.
Assay [9] relates to MOLT-4.
Assay [10] has as its system Malme-3M.
In assay [11] the test system is OVCAR-5.
Assay [12] concerns OVCAR-8.
In assay [13] the test system is RPMI-8226.
Assay [14] relates to SF-539.
Assay [15] has as its system U-251.
The test system of assay [16] is DU-145.
In assay [17] the test system is MCF7.
For assay [18], the system named is PC-3.

In the case of `O=C1c2ccccc2C(=O)c2c(NCCNCCO)ccc(O)c21`, the GI50 was 3.15 µM (inactive) in assay [1]; 2.26 µM (inactive) in [2]; 4.66 µM (inactive) in [3]; 1.81 µM (inactive) in assay [4]; 2.61 µM (inactive) in [5]; 3.21 µM (inactive) in [6]. Moreover, the GI50 in assay [7] is 2.58 µM (inactive); in assay [8], 2.97 µM (inactive); in assay [9] it was 1.37 µM (inactive); in [10], 3.18 µM (inactive); in assay [11] it was 3.4 µM (inactive); in assay [12], 2.39 µM (inactive). The GI50 is 3.22 µM (inactive) in [13], 2.9 µM (inactive) in [14] and 3.48 µM (inactive) in [15].
`O=C1N=C(Nc2ccccc2Cl)SC1C(=O)Nc1ccc([N+](=O)[O-])cc1[N+](=O)[O-]` (stereo not drawn): the GI50 in assay [1], in [2], in assay [3], in [4], in [5] and in [6] was > 100 µM (inactive) throughout. In addition, the GI50 in assay [7], in assay [8], in assay [9], in [10], in assay [11] and in [12] was > 100 µM (inactive) in each case. The GI50 in assay [13], in assay [14] and in assay [15] was > 100 µM (inactive) throughout.
For the compound `CCOc1ccc(NCC2CC/C(=C\c3ccccc3OC)C2=O)cc1` (stereo not drawn), the GI50 in assay [1] was 2.49 µM (inactive); in [2] it was 2.29 µM (inactive); in assay [3] it was 12.8 µM (inactive); in [4], 4.33 µM (inactive); in assay [5], 4.3 µM (inactive); in assay [6], 27.4 µM (inactive). The GI50 is 3.3 µM (inactive) in assay [7]; 10.6 µM (inactive) in assay [8]; 2.75 µM (inactive) in assay [9]; 14.4 µM (inactive) in [10]; 18.5 µM (inactive) in assay [11]; 5.18 µM (inactive) in assay [12]. In addition, the concentration for 50% growth inhibition (GI50) in assay [13] is 0.92 µM (active); in [14], 10.3 µM (inactive); in assay [15], 14.3 µM (inactive).
On to `COc1ccc(/N=N/c2c(N)nn(C)c2N)cc1`, for which the GI50 in assay [1] is 92.7 µM (inactive); in assay [2], > 100 µM (inactive); in [3], 0.319 µM (active); in assay [4], > 100 µM (inactive); in assay [5], > 100 µM (inactive); in assay [6], > 100 µM (inactive). Moreover, the GI50 was > 100 µM (inactive) in assay [7]; > 100 µM (inactive) in assay [8]; 82.8 µM (inactive) in assay [9]; > 100 µM (inactive) in [10]; > 100 µM (inactive) in assay [11]; > 100 µM (inactive) in assay [12]. The GI50 in assay [13], in assay [14] and in [15] was > 100 µM (inactive) throughout.
For the compound `O=C(/C=C/c1ccccc1)c1ccc(NCc2nc3ccccc3[nH]2)cc1`, the GI50 in assay [1] is 2.48 µM (inactive); in assay [2] it was 3.21 µM (inactive); in [3], 2.12 µM (inactive); in assay [4] it was 3.22 µM (inactive); in assay [5] it was 2.33 µM (inactive); in assay [6], 11.2 µM (inactive). Further, the GI50 in [7] is 2.58 µM (inactive); in assay [8] it was 6.56 µM (inactive); in [9], 3.56 µM (inactive); in [10], 13.3 µM (inactive); in assay [11], 10.8 µM (inactive); in [12] it was 3.49 µM (inactive). The GI50 in [13] was 2.29 µM (inactive); in assay [14] it was 2.17 µM (inactive); in [15], 1.91 µM (inactive).
Consider `O=C1C/C(=C/c2ccc(/C=C3/CC(=O)N(c4cccc(Br)c4)C3=O)cc2)C(=O)N1c1cccc(Br)c1`, for which the GI50 in assay [1] was 66.1 µM (inactive); in assay [2], > 100 µM (inactive); in assay [3] it was > 100 µM (inactive); in assay [4] it was > 100 µM (inactive); in [5], > 100 µM (inactive); in assay [6], > 100 µM (inactive). For the same compound, the GI50 in assay [7] is > 100 µM (inactive); in assay [8], > 100 µM (inactive); in [9], 54.2 µM (inactive); in [10], > 100 µM (inactive); in assay [11], > 100 µM (inactive); in [12] it was > 100 µM (inactive). Besides, the GI50 in [13] is > 100 µM (inactive); in [14] it was 51.5 µM (inactive); in [15], > 81.7 µM (inactive).
As to `Oc1nc(S)nc2nc3c4cccnc4c4ccccc4c3nc12`, the GI50 in [1] was 74.6 µM (inactive); in assay [2], > 100 µM (inactive); in [16], > 100 µM (inactive); in assay [3], > 100 µM (inactive); in [4], > 100 µM (inactive); in [5] it was 30.9 µM (inactive). The GI50 is 52.7 µM (inactive) in assay [6]; > 100 µM (inactive) in [7]; > 100 µM (inactive) in [8]; 88.3 µM (inactive) in assay [17]; > 100 µM (inactive) in assay [9]; > 100 µM (inactive) in assay [10]. The GI50 in assay [11] is > 100 µM (inactive); in assay [12], > 100 µM (inactive); in assay [18], > 100 µM (inactive); in [13], 45.8 µM (inactive); in [14], > 100 µM (inactive); in assay [15], > 100 µM (inactive).
As for `O=C1[C@H]2ON(c3ccccc3)C(c3ccc(Cl)cc3)[C@H]2C(=O)N1c1ccc(Cc2ccc(N3C(=O)[C@@H]4ON(c5ccccc5)C(c5ccc(Cl)cc5)[C@@H]4C3=O)cc2)cc1` (stereo partly drawn), the GI50 in [1], in [2], in assay [3], in assay [4], in assay [5] and in assay [6] was > 100 µM (inactive) each time. Moreover, the GI50 was > 100 µM (inactive) in [7]; > 100 µM (inactive) in assay [8]; > 100 µM (inactive) in [9]; 40.7 µM (inactive) in assay [10]; > 100 µM (inactive) in assay [11]; > 100 µM (inactive) in [12]. The GI50 in [13], in assay [14] and in [15] was > 100 µM (inactive) throughout.
With `Cn1c2cc(O)cc(O)c2c(=O)c2c([N+](=O)[O-])cccc21`, the GI50 in assay [1], in [2], in assay [3], in assay [4], in assay [5] and in [6] was > 100 µM (inactive) throughout. In addition, the GI50 in assay [7], in assay [8], in assay [9], in assay [10], in assay [11] and in assay [12] was > 100 µM (inactive) in each case. The GI50 in [13], in assay [14] and in assay [15] was > 100 µM (inactive) each time.
With `O=C1C2=C(c3ccccc31)C(c1ccc(Cl)cc1)N1C(=O)CCSC1=N2` (stereo not drawn), the GI50 in [1] was 51.1 µM (inactive); in assay [2] it was > 100 µM (inactive); in assay [3], > 100 µM (inactive); in [4], 69.2 µM (inactive); in assay [5] it was 34.8 µM (inactive); in assay [6], > 100 µM (inactive). Also, the GI50 in assay [7] was > 100 µM (inactive); in assay [8], 98.6 µM (inactive); in [9], 41.8 µM (inactive); in assay [10], 89.3 µM (inactive); in assay [11], > 100 µM (inactive); in assay [12] it was > 10 µM (inactive). Also, the GI50 in assay [13] was 39 µM (inactive); in [14] it was > 100 µM (inactive); in assay [15] it was > 100 µM (inactive).
With `CCOC(=O)NC(=O)c1cn(CCCOC(=O)CCCCCCCCCCC(=O)OCCCn2cc(C(=O)NC(=O)OCC)c(=O)n(C)c2=O)c(=O)n(C)c1=O`, the GI50 in assay [1], in assay [2], in assay [3], in [4], in assay [5] and in [6] was > 100 µM (inactive) in each case. Also, the GI50 in assay [7], in assay [8], in [9], in [10], in [11] and in [12] was > 100 µM (inactive) throughout. The GI50 in [13], in assay [14] and in assay [15] was > 100 µM (inactive) each time.
As to `CCOC(=O)/C(I)=C/c1cc(OC)c(OC)c(OC)c1`, the GI50 in assay [1] was 1.93 µM (inactive); in assay [2] it was 6.12 µM (inactive); in assay [3], 14.2 µM (inactive); in [4] it was 3.26 µM (inactive); in assay [5] it was 3.67 µM (inactive); in assay [6] it was 26.9 µM (inactive). Moreover, the GI50 was 4.55 µM (inactive) in [7]; 22.2 µM (inactive) in [8]; 7.01 µM (inactive) in assay [9]; 8.89 µM (inactive) in assay [10]; 6.52 µM (inactive) in assay [11]; 6.37 µM (inactive) in [12]. Also, the GI50 in [13] is 4.02 µM (inactive); in assay [14], 9.08 µM (inactive); in [15] it was 6.11 µM (inactive).
As for `CCCCCC(/C=C/[C@@H]1[C@H]2CC(=O)O[C@H]2C[C@H]1N1CCOCC1)OC1CCCO1` (stereo partly drawn), the GI50 in assay [1], in [2], in assay [3], in [4], in assay [5] and in assay [6] was > 100 µM (inactive) throughout. For the same compound, the GI50 in assay [7], in [8], in assay [9], in assay [10], in [11] and in assay [12] was > 100 µM (inactive) throughout. For the same compound, the GI50 in assay [13], in [14] and in [15] was > 100 µM (inactive) in each case.
